In patent US20110152379A1, “COMPOSITION FOR CONTROL OF AGING AND/OR EXTENSION OF LIFE, CONTAINING DAPSONE AS ACTIVE INGREDIENT” (priority 2008, published 2011):

Experiments:
[1] = system: mitochondria complex; assay: Mitochondria complex protein amount by Western blot in PQ-treated human diploid fibroblast; format: cell-based; details: 1 mM PQ 24 hours, FIG. 29A
Protocol: (§1) The protein amount of mitochondria constituent complex was measured by using Western Blot using Complex I (20 kDa ND6 subunit), Complex II (30 kDa FeS, non-heme iron protein, SDHB), Complex III (47 kDa core protein 2), Complex IV (18 kDa subunit IV), Complex V (55 kDa subunit a ATP synthase), and the like. […] The membrane potential (Δψm) of mitochondria used DiOC6. […] Since then, the above fibroblast was treated with 40 nM of DiOC6 for 15 minutes. The results were measured by using Cary Eclipse Fluorescence Spectrophotometer (Varian, Calif., USA) and the excitation wavelength and emission wavelength were measured at 480 nm and 520 nm, respectively.
The isolated sample was transferred to a nitrocellulose and analyzed through Western Blot using MS601 (Total OXPHOS Complexes Detection Kit, MitoSciences, containing antibodies against SDH30 subunit of complex II (5 μg/ml), Core2 subunit of complex III (0.2 μg/ml), COXII subunit of complex IV (2 μg/ml), and subunit α of F1-ATPase of complex V (0.2 μg/ml)), PCKpan-p, PCKα/β-p, PKCδ-p (Phospho-PKC antibody Sampler Kit, Cell Signaling Technology), PKC α, PCKβ, PKCδ (Life Technologies), β-Actin (Sigma), and the like. […] The results were shown through visualizing by using Autoradiographic film (Image Reader, LAS-3000Fujifilm, Japan).

[2] = system: human diploid fibroblast; assay: Survival rate of human diploid fibroblast treated with PQ (CCK-8); details: DDS pretreatment (0.1, 1, 5, 20 and 50 uM) 3 hours, then 1 mM PQ 48 hours; FIG. 23
Protocol: The above cell was cultured by adding Cell Counting Kit-8 for 48 hours and then the survival ability of cell was measured. In addition, DPI (5 uM) was pretreated for 30 minutes and NAC (2 mM) was pretreated for 3 hours, and then 1 mM of PQ was treated as a positive control.
The evaluation of survival rate of cell was performed by using Counting Kit (CCK-8) from Dojindo Laboratory Company (Japan). The human diploid fibroblast was cultured at 96-well plate for 24 hours before treating. […] The absorbance was measured at 450 nm.

[3] = system: C. elegans; assay: Oxidative stress resistance test, survival in 250 mM paraquat; format: in vivo; details: PQ 250 mM; compared with control C. elegans; FIG. 12
Protocol: C. elegans at 5 days after administrating dapsone for second generations was used for testing an oxidative stress resistance by dapsone. 250 mM of paraquat was dissolved in M9 solution and then 20 C. elegans was immersed into the above solution. The number of living C. elegans was measured per an hour.

[4] = system: pyruvate; assay: Pyruvate content in C. elegans (fluorescence-based assay kit); format: in vivo; details: C. elegans that fed on DDS; FIG. 17A
Protocol: The measurement of pyruvate content was performed by using Fluorescence-based assay kit (BioVision) was purchased according to its instructions. […] Three measurements were performed.

[5] = system: H2O2; assay: Hydrogen peroxide by Amplex Red assay in paraquat-treated C. elegans; format: in vivo; details: 250 mM paraquat for 1 hour; FIG. 11
Protocol: The effect of dapsone on ROS scavenging was measured by using Amplex Red hydrogen peroxide/peroxygenase detection kit (Molecular Probes, Eugene, Oreg.) [39] that were previously described in order to measure the effect of dapsone on ROS scavenging. Simply put, 150 C. elegans that fed only on PABA or fed on PABA and dapsone was treated with 250 mM of paraquat for 1 hour. 100 C. elegans were adjusted to be 50 ul at 96-well plate and then 50 ul of Amplex Red (200 uM) was added to each well. After maintaining at 22° C. for 90 minutes, the amount of hydrogen peroxide was measured at 540 nm of absorbance by using a plate reader (Tecan, infinite 200).

[6] = system: C. elegans; assay: Vitality (movements) of worms at 23 days; format: in vivo; details: 23 days after adult; FIG. 4
Text: At this time, the arrows indicate the initial positions of worms.

[7] = system: membrane potential of mitochondria; assay: Membrane potential of mitochondria, DiOC6 assay; format: cell-based, human; details: pretreated with DDS (3 hours) or DPI (30 minutes), then 1 mM PQ 24 hours; FIG. 29B
Protocol: as §1
The change of membrane potential (Δψm) of mitochondria was measured by using a cationic dye, DiOC6 that is a specific fluorescent material for mitochondria. An aspect of the change was measured by using Fluorescence Spectrophotometer. The cell was cultured in 40 nM DiQC6 for 15 minutes and then the fluorescent material that was left was removed by using PBS. The analysis was performed by using Cary Eclipse fluorescence spectrophotometer (Varian, Calif., USA), and then the excitation wavelength was measured at 480 nm, and the emission wavelength was measured at 520 nm.

[8] = system: pyruvate kinase; assay: Pyruvate kinase activity in vivo (worms that fed on DDS); set-up: species or system C. elegans; details: FIG. 16B
Protocol: PK activity was analyzed through the decrease degree of absorbance at 340 nm by using the change result from pyruvate and NADH to lactate and NAD by lactate dehydrogenase (LDH). The pyruvate and ATP used for the above process were produced from phosphoenolpyruvate (PEP) and ADP by PK. The analysis in vitro was measured by adding directly DDS along with PK to the above reaction mixture and the analysis in vivo was measured by adding worms that fed on DDS.
Samples were homogenized by rupturing C. elegans with glass bead Precellys 24 homogenizer, twice for 20 seconds, at 5000 rpm in a 100 mM potassium phosphate buffer, pH 7.6, at 37° C. A CHAPS was added to the homogenized sample to be 1% of the final concentration and then centrifuged at 15000 g for 20 minutes. The measurement of pyruvate kinase(PK) activity was performed at 37° C. by adding 300 uL of the reaction mixture contained 100 mM potassium phosphate buffer at pH 7.6 and 37° C., 100 mM MgSO4, 1.3 mM β-NADH, 5000 units/mL of lactate dehydrogenase (LDH), 2 mM adenosine diphosphate (ADP) and 17 mM phosphoenolpyruvate (PEP) into the sample. The change of oxidation degree of NADH was measured at 340 nm of absorbance. PK 1 unit was defined as the change into 1.0 umole of pyruvate per a minute at pH 7.6 and 37° C. […] Type I pyruvate kinase (Sigma) of rabbit muscle was used for in vitro experiment.

[9] = system: PKCβ; assay: PKC phosphorylation induced by PQ, Western blot; format: cell-based; details: human diploid fibroblast; 1 mM PQ; FIG. 28
Protocol: (§2) The isolated sample was transferred to a nitrocellulose and analyzed through Western Blot using MS601 (Total OXPHOS Complexes Detection Kit, MitoSciences, containing antibodies against SDH30 subunit of complex II (5 μg/ml), Core2 subunit of complex III (0.2 μg/ml), COXII subunit of complex IV (2 μg/ml), and subunit α of F1-ATPase of complex V (0.2 μg/ml)), PCKpan-p, PCKα/β-p, PKCδ-p (Phospho-PKC antibody Sampler Kit, Cell Signaling Technology), PKC α, PCKβ, PKCδ (Life Technologies), β-Actin (Sigma), and the like. The measurement was performed by using a horseradish […] secondary antibodies (Zymed) and ECL (Pierce). The results were shown through visualizing by using Autoradiographic film (Image Reader, LAS-3000Fujifilm, Japan).

[10] = system: SOD2; assay: Western blot of SOD2 amount in human diploid fibroblast; format: cell-based; details: various concentrations of DDS, FIG. 25B
Protocol: Trolox that is well known as a water-soluble vitamin E was used as a positive control.
as §2

[11] = system: ceDuox1; assay: RT-PCR of ceDuox1 mRNA in worms; format: in vivo, C. elegans; details: worms treated with DDS; FIG. 13
Protocol: Total RNA was isolated by using TRI reagent available from MRC Company and first cDNA strain was synthesized by using Oligo-dT and Superscript II Reverse Transcriptase (available from Invitrogen Company). The gene amplification (PCR) was performed by using PCR Master Mix (Genenmed) and as the base sequence of the primer, ceDuox1; 5′-[…]-3′ (Forward Primer) and 5′-[…]-3′ (Reverse Primer), actin 5′-[…]-3′ (Forward Primer) and 5′-[…]-3′ (Reverse Primer) were used.

With `Nc1ccc(S(=O)(=O)c2ccc(N)cc2)cc1` [DDS, 4,4′-diaminodiphenylsulfone] the “amount of mitochondria complex reduced by PQ” value [1] was “recover”, the “viability of human diploid fibroblast compared with the cell having the cytotoxic of PQ” value [2] was “improved” and the “survival rate in NGM liquid medium containing PQ” value [3] was “significantly increased”. For the same compound, the “content of pyruvate compared with a control” value [4] was “high content of pyruvate”, the “ROS (H2O2) generation by PQ” value [5] was “meaningfully suppresses” and the movement of worms [6] was “more strong active movement”. The “decrease of membrane potential induced by PQ” value [7] was “meaningfully maintained”, the “biochemical activity of PK in vivo” value [8] was “suppresses” and the “PKCβ phosphorylation (activity) increased by PQ” value [9] was “reduced”. The “amount of SOD2” value [10] was “decreases” and the “amounts of mRNA of C. elegans NOX, ceDuox” value [11] was “significantly decreased”.
